Experimental data from US20170239239A1, “Method for Inducing a Sustained Immune Response” (Immune Therapeutics Inc., priority 2016, published 2017).
Read-outs that look alike come from different tables or passages of the source.

Experiments:
[1] = tested on: Follicular Lymphoma (FL); settings: 1 year after last CT/PET imaging; cited from earlier work
[2] = tested on: multiple sclerosis; test: Case reports, multiple sclerosis
[3] = tested on: Crohn's disease; test: Randomized placebo-controlled study in 40 subjects with active Crohn's disease; format: in vivo, human
Excerpt: Forty subjects with active Crohn's disease were enrolled in the study. […] Providers and patients were masked to treatment assignment. The primary outcome was the proportion of subjects in each arm with a 70-point decline in Crohn's Disease Activity Index score (CDAI). The secondary outcome included mucosal healing based upon colonoscopy appearance and histology.

[4] = tested on: asymptomatic HIV+ adults; test: Single blind 90 day randomized bridging clinical trial in Nigeria; format: in vivo, human
Method: The differences in CD4 count, CD4%, hemoglobin, viral load, interferon alpha, and standard chemistry panel were measured between treated versus non-treated groups four times throughout the study. […] When used alone, it appears to slow and/or stop the progression of the disease.

[5] = tested on: autism; test: Case reports, autism; settings: child
[6] = tested on: patients with hematologic malignancies; settings: cited from earlier work
[7] = tested on: prostate cancer; test: Case report, stage 3 prostate cancer; format: in vivo, human; settings: person; 4.5 mg nightly with Docetaxel
Excerpt: person was diagnosed with stage 3 prostate cancer which they were originally treated for 5 years before began 3 rounds of Docetaxel (Taxotere®).

[8] = tested on: CRPS
[9] = tested on: Autoimmune Hepatitis; test: Case report, Autoimmune Hepatitis Type 1; format: in vivo, human; settings: first two weeks
[10] = tested on: pleural mesothelioma; test: Case report, stage 4 pleural mesothelioma; format: in vivo, human; settings: person; 4.5 mg nightly, no chemotherapy; February 2009 and 2010
Method: Person diagnosed with stage 4 pleural mesothelioma in December of 2008 and patients after consult with two other doctors it was determined due to the state of the diseases and other health issues to watch the tumors and not do chemotherapy. Prognosis was 6 to 12 months. Patient started 4.5 mg nightly and received on other treatment but did change diet.

[11] = tested on: lymphocyte subsets of autistic children; test: Behavioral and immunological assessment in autism, double-blind naltrexone; design: species or system human; settings: in vivo
Excerpt: Opioid-immune interactions in autism: behavioral and immunological assessment during a double-blind treatment with naltrexone.
Changes in natural killer cells and activity were inversely related to plasma beta-endorphin levels.

[12] = tested on: primary progressive multiple sclerosis (PPMS); test: Six month phase II multicenter pilot trial in primary progressive multiple sclerosis, 40 patients; format: in vivo, human
Method: The primary end points were safety and tolerability. Secondary outcomes were efficacy on spasticity, pain, fatigue, depression, and quality of life. Clinical and biochemical evaluations were serially performed. Protein concentration of beta-endorphins (BE) and mRNA levels and allelic variants of the mu-opioid receptor gene (OPRM1) were analyzed.

[13] = tested on: psoriatic arthritis; test: Case report, psoriatic arthritis; format: in vivo, human
[14] = tested on: Rheumatoid Arthritis; test: Case reports, Rheumatoid Arthritis; format: in vivo, human
Method: A person diagnosed with Rheumatoid Arthritis in 2006 and was being treated with methotrexate and plaquenil but patients continued with pain and fatigue.
person two diagnosed 5 years ago with RA was treated with Methotrexate 25 mg per week and Remicade […] every 6 weeks, the fatigue and pain continued, along with the inflammation and general weakness. Sleep disturbed nightly due to pain in my shoulders and hips. Patient felt their life was not acceptable and none of the immunosuppression drugs were helping. […] Within two weeks patient stopped even ibuprophen. Rheumatoid factor has gone from 127 to 66 in 4 months and has stayed stable. […] Occasionally patient has pain but it is easily controlled with a normal dosage of ibuprophen.
A person, diagnosed with RA in 1999 stayed very active until 2005 on a combination of Methotrexate and Prednisone but was have difficulty maintaining their business due to fatigue and severe joint pain with deformity of their hands and elbows. Patient was told to increase their does and start a second immunomodulating drug. Patient no longer wanted to continue with immunosuppression drug or steroids due to the side effects.

[15] = normal volunteers, HIV positive, multiple sclerosis, autism, fibromyalgia, diabetes, and cancer patients; cited from earlier work

In the case of `O=C1CC[C@@]2(O)[C@H]3Cc4ccc(O)c5c4[C@@]2(CCN3CC2CC2)[C@H]1O5` [Immediate release naltrexone, naltrexone], the “disease symptoms at follow-up” value [1] is listed as “remains asymptomatic”, the “MRI over the last 8 years” value ([2]; person six) is listed as “no progression of the disease” and the relapses ([2]; person six, 4.5 mg at bedtime since 2002) is listed as “not had a one relapse”. For the same compound, the MRI ([2]; person, SPMS, 1.5 mg to 3 mg, January of 2011) was “reduced plaque and lesion size”, the mobility ([2]; person, Secondary Progressive, 1.5 mg to 3 mg) was “upgraded from wheelchair to cane” and the “time to walking again with a cane” value ([2]; person, wheelchair bound, 3 mg nightly) was no more than 10 days. For the same compound, the Exacerbations ([2]; person, 1.5 mg increasing to 4.5 mg nightly, with hormones and Cortef) was “became less frequent and have stopped”, the disease course ([2]; person, 4.5 mg for seven months) was “the disease has stabilized and the progressive deterioration has stopped” and the relapses ([2]; person, 4.5 mg nightly, update 2010) was “no relapses”. For the same compound, the side effects ([2]; person, after increase to 4.5 mg) was “some insomnia”, the “subjects with at least a 70-point decline in CDAI scores” value ([3]; 4.5-mg daily oral, placebo 40% (p=0.009)) was “Eighty-eight” and the “remission with a CDEIS score<6” value ([3]; after 12 weeks, placebo 8%) was 33%. For the same compound, the “endoscopic response (5-point decline in CDEIS)” value ([3]; after 12 weeks, placebo 28% (p=0.008)) was 78%, the “improvement in CD4 count, increase” value ([4]; about 4.5 mg single oral dose with ART, at 3 months, vs control group) was 44% and the BMI ([4]; about 4.5 mg with ART) was “increase”. The opportunistic infections ([4]; about 4.5 mg with ART) was “reduction”, the “Improvement in CD4%” value ([4]; about 4.5 mg with ART, throughout treatment) was “statistically significant” and the language skills [5] was “improved”. For the same compound, the side effect [5] was “a little constipation”, the illness ([5]; continually sick before) was “has not been sick since starting” and the hyperactivity ([5]; 3 mg) was “increased for the first three weeks”. The social behaviors ([5]; 3 mg, over the next months) was “skyrocketed”, the “EORTC QLQ-C30 social functioning vs placebo” value ([6]; 3 mg capsules daily plus routine treatment, one month follow-up (p<0.05)) was “better condition” and the “EORTC QLQ-C30 social functioning, role functioning, nausea and vomiting and appetite loss vs placebo” value ([6]; 3 mg daily, 3-month follow-up (all p-values<0.05)) was “better”. The “EORTC QLQ-C30 physical, social, role functioning, global quality of life, nausea and vomiting and appetite loss vs placebo” value ([6]; 3 mg daily, 5-month follow-up) was “significantly better”, the blood laboratory tests ([6]; 3 mg daily) was “no changes” and the “white blood cell, red blood cell and plate count” value ([6]; 3 mg daily) was “remained stable”. The blood work [7] was “stayed stable”, the “overall quality of life” value [7] was “much better” and the “pain scores NRS” value ([8]; patient, EDS, 3 mg then 4.5 mg per day, from (7-10)/10) was 3-5 /10. The “post-operative pain NRS” value ([8]; patient, 3 weeks after resuming) was 4-6 /10, the side effects ([8]; patient, 18 months) was “No side effects” and the “fixed dystonia of the leg” value ([8]; patient, at cast removal after ankle surgery) was “remission”. For the same compound, the “effect on the dystonia” value ([8]; patient, first months of treatment) was “no effect”, the CRPS symptoms ([8]; patient, maintained for 18 months) was “resolved completely” and the side effects ([8]; person five) was “No side effects”. The “pain, average on the Numeric Rating Scale (NRS)” value ([8]; person five, 4.5 mg per day at night, from 8 to 10 before) was 5 to 6, the dystonic spasms ([8]; person five, within 2 months) was “discontinued” and the side effects [9] was “vivid dreams and mild indigestion”. The CAT scans [10] was “no measurable growth of tumors”, the “T-cytotoxic-suppressor (CD4− CD8+)” value [11] was “significant reduction” and the “T-helper-inducers (CD4+ CD8−)” value [11] was “significant increase”. For the same compound, the major adverse events ([12]; 40 patients) was “two”, the “BE (beta-endorphins) concentration” value ([12]; during the trial) was “increased” and the spasticity ([12]; end of the trial) was “significant reduction”. For the same compound, the Neurological disability ([12]; human, in vivo) was “progressed in only one patient”, the safety and tolerability ([12]; six months) was “safe and well tolerated” and the “use of other medication” value ([13]; person, 4.5 mg at bedtime, within 10 days) was “able to discontinue all paid medications as well as the Humira”. For the same compound, the disease course ([13]; six months) was “the disease has stabilized and the progressive deterioration has stopped”, the Fatigue ([14]; person two) was “gone” and the Rheumatoid factor ([14]; person two, 4.5 mg at bedtime, from 127 in 4 months) was 66. The disease course ([14]; person, 4.5 mg with multi-part protocol, 7 years later) was “not advanced”, the “use of other medication” value ([14]; person, titrated to 4.5 mg, March of 2010) was “Successfully discontinued methotrexate” and the toxicity [15] was “no major toxicity”.
